Experimental data reported in US20250084087A1, “BICYCLIC HETEROCYCLES AS MRGPRX2 ANTAGONISTS” (Incyte Corporation, priority 2023, published 2025).

Legend:
Format in all cases: cell-based
MRGPRX2 [1] = target: T1, MRGPRX2 (Homo sapiens, UniProt Q96LB1); assay: MRGPRX2 FLIPR calcium mobilization assay; parameters: host or cells: CHO-K1; details: CHO-K1 cells stably expressing human MRGPRX2; Ca2+ release; agonist Cortistatin-14 at EC80
T1 sequence (Q96LB1 1-330): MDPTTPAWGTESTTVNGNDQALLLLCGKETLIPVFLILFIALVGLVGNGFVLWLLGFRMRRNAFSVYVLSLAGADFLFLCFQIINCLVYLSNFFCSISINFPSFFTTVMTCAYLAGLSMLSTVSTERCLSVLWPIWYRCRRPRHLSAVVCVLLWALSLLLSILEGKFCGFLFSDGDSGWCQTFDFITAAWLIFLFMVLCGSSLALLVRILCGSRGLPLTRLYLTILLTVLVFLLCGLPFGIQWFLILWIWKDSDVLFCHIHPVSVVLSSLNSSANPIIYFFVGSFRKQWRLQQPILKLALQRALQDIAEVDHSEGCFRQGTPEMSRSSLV
Outline: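 CHO-K1 cells stably expressing the receptor, loaded with Calcium 6 dye, then preincubated 30 min at r.t. with compound in HBSS/20 mM HEPES pH 7.4. Cortistatin-14 at EC80 added; baseline-adjusted maximum RFU read over 110 s. IC50 from 3- or 4-parameter Hill fit.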

MRGPRX2 [2] = target: T1, MRGPRX2; assay: MRGPRX2 IP1 HTRF assay; parameters: host or cells: CHO-K1; details: CHO-K1 cells stably expressing human MRGPRX2; IP1 accumulation; agonist Cortistatin 14 1 μM
Outline: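 CHO-K1 cells stably expressing human MRGPRX2, preincubated with compound 1 h at 37 °C, then stimulated with 1 μM Cortistatin 14 for 1 h. IP1 measured by HTRF against standard curve, normalized to DMSO and reference antagonist controls; IC50 from 3- or 4-parameter Hill fit.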

MRGPRX2 [3] = target: T1, MRGPRX2; assay: MRGPRX2 β-Arrestin recruitment assay (PathHunter); parameters: host or cells: CHO-K1 (PathHunter); details: PathHunter CHO-K1 MRGPRX2 β-Arrestin cell line; agonist Cortistatin 14 0.25 μM
Outline: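 CHO-K1 PathHunter cells co-expressing ProLink-tagged MRGPRX2 and enzyme-acceptor-tagged β-arrestin were preincubated with compound 1 h at 37° C., then stimulated with cortistatin-14 (0.25 μM final) for 90 min. Enzyme-complementation luminescence read after 1 h detection; data normalized to DMSO and reference antagonist, IC50 from 3- or 4-parameter Hill fit.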

Measured: IC50

CNC(=O)N1CCC(CNc2cccc3nc(C(F)(F)F)cn23)(c2ccccc2)CC1 [Example 21, N-Methyl-4-phenyl-4-(((2-(trifluoromethyl)imidazo[1,2-a]pyridin-5-yl)amino)methyl)piperidine-1-carboxamide]
0.1 to 100 nM: all assays above

NS(=O)(=O)N1CC(CNc2cc(C(F)(F)F)nc3cc(C(F)(F)F)nn23)(c2ccc(F)cc2)C1 [Example 30, 3-(((2,5-Bis(trifluoromethyl)pyrazolo[1,5-a]pyrimidin-7-yl)amino)methyl)-3-(4-fluorophenyl)azetidine-1-sulfonamide]
0.1 to 100 nM: all assays above

NC(=O)N1CC(CNc2cc(C(F)(F)F)nc3cc(C(F)(F)F)nn23)(c2ccc(F)cc2)C1 [Example 31, 3-(((2,5-Bis(trifluoromethyl)pyrazolo[1,5-a]pyrimidin-7-yl)amino)methyl)-3-(4-fluorophenyl)azetidine-1-carboxamide]
0.1 to 100 nM: all assays above

NS(=O)(=O)N1CC(CNc2cccc3nc(C(F)(F)F)nn23)(c2ccc(F)cc2)C1 [Example 32, 3-(4-Fluorophenyl)-3-(((2-(trifluoromethyl)-[1,2,4]triazolo[1,5-a]pyridin-5-yl)amino)methyl)azetidine-1-sulfonamide]
0.1 to 100 nM: all assays above

NC(=O)N1CC(CNc2cccc3nc(C(F)(F)F)nn23)(c2ccc(F)cc2)C1 [Example 33, 3-(4-Fluorophenyl)-3-(((2-(trifluoromethyl)-[1,2,4]triazolo[1,5-a]pyridin-5-yl)amino)methyl)azetidine-1-carboxamide]
0.1 to 100 nM: all assays above

Fc1ccc(C2(CNc3cccc4nc(C(F)(F)F)cn34)CCC2)cc1 [Example 36, N-((1-(4-Fluorophenyl)cyclobutyl)methyl)-2-(trifluoromethyl)imidazo[1,2-a]pyridin-5-amine]
0.1 to 100 nM: all assays above

FC(F)(F)c1cn2c(NCC3(c4ccncc4)CCC3)cccc2n1 [Example 37, N-((1-(Pyridin-4-yl)cyclobutyl)methyl)-2-(trifluoromethyl)imidazo[1,2-a]pyridin-5-amine]
0.1 to 100 nM: all assays above

COc1ccc(C2(CNc3cccc4nc(C(F)(F)F)cn34)CCOCC2)cc1 [Example 39, N-((4-(4-Methoxyphenyl)tetrahydro-2H-pyran-4-yl)methyl)-2-(trifluoromethyl)imidazo[1,2-a]pyridin-5-amine]
0.1 to 100 nM: all assays above

CN1CCN(C2CC(CNc3cc(C(F)(F)F)nc4cc(Br)nn34)(c3ccccc3)C2)CC1 (stereo not drawn) [Example 43, 2-Bromo-N-((3-(4-methylpiperazin-1-yl)-1-phenylcyclobutyl)methyl)-5-(trifluoromethyl)pyrazolo[1,5-a]pyrimidin-7-amine]
0.1 to 100 nM: all assays above

OCCNC1CC(CNc2cc(C(F)(F)F)nc3cc(Br)nn23)(c2ccccc2)C1 (stereo not drawn) [Example 44, 2-((3-(((2-Bromo-5-(trifluoromethyl)pyrazolo[1,5-a]pyrimidin-7-yl)amino)methyl)-3-phenylcyclobutyl)amino)ethan-1-ol]
0.1 to 100 nM: all assays above

N#Cc1cnc(N2CC(CNc3cc(C(F)(F)F)nc4cc(C(F)(F)F)nn34)(c3ccc(F)cc3)C2)cn1 [Example 45, 5-(3-(((2,5-Bis(trifluoromethyl)pyrazolo[1,5-a]pyrimidin-7-yl)amino)methyl)-3-(4-fluorophenyl)azetidin-1-yl)pyrazine-2-carbonitrile]
0.1 to 100 nM: all assays above

O=C(N[C@H]1CC[C@H](O)CC1)N1CC(CNc2cc(C(F)(F)F)nc3cc(C(F)(F)F)nn23)(c2ccc(F)cc2)C1 [Example 48, 3-(((2,5-Bis(trifluoromethyl)pyrazolo[1,5-a]pyrimidin-7-yl)amino)methyl)-3-(4-fluorophenyl)-N-((1r,4r)-4-hydroxycyclohexyl)azetidine-1-carboxamide]
0.1 to 100 nM: all assays above

O=C(N[C@H]1C[C@H](O)C1)N1CC(CNc2cc(C(F)(F)F)nc3cc(C(F)(F)F)nn23)(c2ccc(F)cc2)C1 [Example 49, 3-(((2,5-Bis(trifluoromethyl)pyrazolo[1,5-a]pyrimidin-7-yl)amino)methyl)-3-(4-fluorophenyl)-N-((1r,3r)-3-hydroxycyclobutyl)azetidine-1-carboxamide]
0.1 to 100 nM: all assays above

NC(=O)N1CC(CNc2cc(C(F)(F)F)nc3cc(Cl)nn23)(c2ccc(F)cc2)C1 [Example 57, 3-(((2-Chloro-5-(trifluoromethyl)pyrazolo[1,5-a]pyrimidin-7-yl)amino)methyl)-3-(4-fluorophenyl)azetidine-1-carboxamide]
0.1 to 100 nM: all assays above

NC(=O)N1CC(CNc2cc(C(F)(F)F)nc3cc(Br)nn23)(c2ccc(Cl)cc2)C1 [Example 58, 3-(((2-Bromo-5-(trifluoromethyl)pyrazolo[1,5-a]pyrimidin-7-yl)amino)methyl)-3-(4-chlorophenyl)azetidine-1-carboxamide]
0.1 to 100 nM: all assays above

NS(=O)(=O)N1CC(CNc2cc(C(F)(F)F)nc3cc(C(F)(F)F)nn23)(c2ccc(F)cn2)C1 [Example 59, 3-(((2,5-Bis(trifluoromethyl)pyrazolo[1,5-a]pyrimidin-7-yl)amino)methyl)-3-(5-fluoropyridin-2-yl)azetidine-1-sulfonamide]
0.1 to 100 nM: all assays above

[2H]C([2H])([2H])NC(=O)N1CC(CNc2cc(C(F)(F)F)nc3cc(C(F)(F)F)nn23)(c2ccc(F)cn2)C1 [Example 61, 3-(((2,5-Bis(trifluoromethyl)pyrazolo[1,5-a]pyrimidin-7-yl)amino)methyl)-3-(5-fluoropyridin-2-yl)-N-(methyl-d3)azetidine-1-carboxamide]
0.1 to 100 nM: all assays above

[2H]C([2H])([2H])NC(=O)N1CC(CNc2cc(C(F)(F)F)nc3cc(C(F)F)nn23)(c2ccc(F)cc2)C1 [Example 62, 3-(((2-(Difluoromethyl)-5-(trifluoromethyl)pyrazolo[1,5-a]pyrimidin-7-yl)amino)methyl)-3-(4-fluorophenyl)-N-(methyl-d3)azetidine-1-carboxamide]
0.1 to 100 nM: all assays above

NC(=O)N1CC(CNc2cc(Cl)nc3cc(C(F)(F)F)nn23)(c2ccc(F)cc2)C1 [Example 66, 3-(((5-Chloro-2-(trifluoromethyl)pyrazolo[1,5-a]pyrimidin-7-yl)amino)methyl)-3-(4-fluorophenyl)azetidine-1-carboxamide]
0.1 to 100 nM: all assays above

Cc1cc(NCC2(c3ccc(F)cc3)CN(C(N)=O)C2)n2nc(C(F)(F)F)cc2n1 [Example 67, 3-(4-Fluorophenyl)-3-(((5-methyl-2-(trifluoromethyl)pyrazolo[1,5-a]pyrimidin-7-yl)amino)methyl)azetidine-1-carboxamide]
0.1 to 100 nM: all assays above

CCc1cc(NCC2(c3ccc(F)cc3)CN(C(N)=O)C2)n2nc(C(F)(F)F)cc2n1 [Example 68, 3-(((5-Ethyl-2-(trifluoromethyl)pyrazolo[1,5-a]pyrimidin-7-yl)amino)methyl)-3-(4-fluorophenyl)azetidine-1-carboxamide]
0.1 to 100 nM: all assays above
